Among the test systems are SF-539 CNS; M19-MEL melanoma; OVCAR-4 ovarian; NCI-H460 lung; SN12C renal; SNB-19 CNS; SNB-78 CNS; RPMI-8226 leukemia.
Assay in all cases: inhibition of tumour cell growth, NCI panel, 48 h

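Tested at 5 concentrations; 48 h exposure; 96-well plates; endpoints linearly interpolated, else capped at highest concentration. TGI denotes the concentration required for complete inhibition of growth.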

For the molecule `C=CCN=C1N=C(CC(=O)OCC)CS1`, the TGI in the test on SF-539 CNS, with M19-MEL melanoma, in the test with OVCAR-4 ovarian, in the test with NCI-H460 lung, with SN12C renal and with SNB-19 CNS was greater than 100 µM each time. Also, in the test on SNB-78 CNS, the TGI was greater than 100 µM.

For the molecule `O=C(Nc1nccs1)c1cc(C2=CC=CC([N+](=O)[O-])C=C2)nc(=S)[nH]1` (centres undefined), the TGI in the test with SF-539 CNS, in the test with M19-MEL melanoma, in the test with RPMI-8226 leukemia, in the test on NCI-H460 lung, in the test on SN12C renal and with SNB-19 CNS was greater than 100 µM each time. Also, in the test with SNB-78 CNS, the TGI is greater than 100 µM.

On to `COc1cc2c(cc1OC)[C@@H](C(O)c1ccccc1)NCC2` (some centres undefined), for which the TGI in the test on SF-539 CNS, in the test with M19-MEL melanoma, in the test with OVCAR-4 ovarian, in the test on NCI-H460 lung, with SN12C renal and in the test on SNB-19 CNS was greater than 100 µM each time. The molecule also came in with a TGI with SNB-78 CNS greater than 100 µM.

As to `O=Cc1[nH]c2ccccc2c1Br`, the TGI in the test with SF-539 CNS was 34.5 µM; in the test on M19-MEL melanoma, 59.7 µM; with OVCAR-4 ovarian, greater than 100 µM; in the test with SN12C renal, 50.5 µM; in the test with SNB-19 CNS, 67.2 µM; in the test on SNB-78 CNS, 44.1 µM.

Consider `COc1ccc(/C=C2\CNC/C(=C\c3ccc(OC)cc3)C2=O)cc1`, for which the TGI is 41.6 µM in the test with SF-539 CNS; greater than 100 µM with M19-MEL melanoma; greater than 100 µM in the test with OVCAR-4 ovarian; greater than 100 µM with RPMI-8226 leukemia; greater than 100 µM in the test on NCI-H460 lung; greater than 100 µM in the test with SN12C renal. The TGI in the test on SNB-19 CNS and with SNB-78 CNS was greater than 100 µM throughout.

Consider `COc1ccc(C=NC23CC4CC(CC(C4)C2)C3)cc1`, for which the TGI is greater than 100 µM in the test with SF-539 CNS; greater than 10 µM in the test with M19-MEL melanoma; greater than 100 µM in the test on OVCAR-4 ovarian; greater than 100 µM in the test with RPMI-8226 leukemia; greater than 100 µM in the test with NCI-H460 lung; greater than 100 µM with SN12C renal. Moreover, the TGI with SNB-19 CNS and in the test on SNB-78 CNS was greater than 100 µM each time.

As to `O=C(c1ccc(NCN2C(=O)CCC2=O)cc1)c1ccc(NCN2C(=O)CCC2=O)cc1`, the TGI in the test with SF-539 CNS was greater than 100 µM; with M19-MEL melanoma it was greater than 100 µM; in the test on OVCAR-4 ovarian, greater than 100 µM; with RPMI-8226 leukemia, 43.9 µM; with NCI-H460 lung, greater than 100 µM; with SN12C renal it was greater than 100 µM. The TGI in the test on SNB-19 CNS and with SNB-78 CNS was greater than 100 µM each time.

Regarding `O=C(O)c1ccc([N+](=O)[O-])c2c(=O)c3ccccc3[nH]c12`, the TGI in the test with SF-539 CNS, in the test on M19-MEL melanoma, in the test with OVCAR-4 ovarian, in the test with RPMI-8226 leukemia, with NCI-H460 lung and in the test on SN12C renal was greater than 100 µM each time. Also, the TGI in the test with SNB-19 CNS and in the test on SNB-78 CNS was greater than 100 µM in each case.

For the molecule `CC(=O)OC[C@@H]1[C@H]2CC(=O)O[C@H]2C[C@H]1OC(C)=O`, the TGI in the test with SF-539 CNS, in the test with M19-MEL melanoma, in the test on OVCAR-4 ovarian, with RPMI-8226 leukemia, in the test with NCI-H460 lung and in the test on SN12C renal was greater than 100 µM each time. In addition, the TGI in the test with SNB-19 CNS and in the test with SNB-78 CNS was greater than 100 µM each time.

With `CC(C)(C)C(=O)C(c1ccc(-c2cscn2)cc1)c1ccc(-c2cscn2)cc1`, the TGI in the test with SF-539 CNS was greater than 56.3 µM; in the test on M19-MEL melanoma, greater than 100 µM; with OVCAR-4 ovarian it was 9.54 µM; with RPMI-8226 leukemia, greater than 100 µM; in the test with NCI-H460 lung, greater than 100 µM; in the test on SN12C renal, greater than 100 µM. Besides, the TGI was greater than 69.7 µM in the test on SNB-19 CNS and 78.5 µM with SNB-78 CNS.

In the case of `CCOC(=O)NC(=O)c1cn(CCCOC(=O)CCCCCCCCC(=O)OCCCn2cc(C(=O)NC(=O)OCC)c(=O)[nH]c2=O)c(=O)[nH]c1=O`, the TGI was 82.1 µM in the test with SF-539 CNS; greater than 100 µM with M19-MEL melanoma; 30.7 µM in the test with OVCAR-4 ovarian; 38.3 µM in the test on RPMI-8226 leukemia; greater than 100 µM in the test on NCI-H460 lung; greater than 100 µM in the test with SN12C renal. Besides, the values for the TGI in the test with SNB-19 CNS and with SNB-78 CNS were 57.4 µM and greater than 100 µM, respectively.

In the case of `COC1CC(OS(=O)(=O)c2ccc(C)cc2)C(OS(=O)(=O)c2ccc(C)cc2)C(COS(=O)(=O)c2ccc(C)cc2)O1` (centres undefined), the TGI stood at 6.65 µM in the test with SF-539 CNS; 20 µM in the test on M19-MEL melanoma; 1.12 µM with OVCAR-4 ovarian; 86 µM in the test with RPMI-8226 leukemia; 24.7 µM in the test on NCI-H460 lung; 20.8 µM with SN12C renal. Besides, the TGI with SNB-19 CNS was 5.58 µM; in the test with SNB-78 CNS, greater than 100 µM.

For `CN(C)c1ccc(/C=C2\N=C(c3ccc(N)cc3)OC2=O)cc1`, the TGI with SF-539 CNS, with M19-MEL melanoma, in the test with OVCAR-4 ovarian, with RPMI-8226 leukemia, with NCI-H460 lung and in the test on SN12C renal was greater than 100 µM throughout. Further, the TGI in the test with SNB-19 CNS and in the test with SNB-78 CNS was greater than 100 µM each time.

Values taken from PubChem BioAssay (NCI).
